Test results: patent US20100317656A1, “IMIDAZO[1,2-a]PYRIDINE-2-CARBOXAMIDE DERIVATIVES, PREPARATION THEREOF AND APPLICATION THEREOF IN THERAPEUTICS” (SANOFI-AVENTIS, priority 2008, published 2010)

biological target: T1, mouse Nurr1 receptor (Mus musculus, UniProt Q06219); assay: Evaluation of the in vitro activity on N2A cells (NBRE-luciferase reporter); assay type: cell-based; conditions: N2A (Neuro-2A) cells endogenously expressing Nurr1, stably transfected with 8NBRE-luciferase; products incubated 24 hours; luminescence
T1 construct: a cell line (N2A) endogenously expressing the mouse Nurr1 receptor; host or cells: Neuro-2A (N2A) mouse neuroblastoma cells stably transfected with 8NBRE-luciferase
Experimental: The activity of the compounds according to the invention was evaluated on a cell line (N2A) endogenously expressing the mouse Nurr1 receptor and stably transfected with the NOT binding response element (NBRE) coupled to the luciferase reporter gene. The EC50 values are between 0.01 and 1000 nM. The assays were carried out according to the procedure described below.
The Neuro-2A cell line comes from a standard commercial source (ATCC). The Neuro-2A clone was obtained, from a spontaneous tumour originating from an A albino mouse strain, by R. J Klebe et al. This Neuro-2A line is subsequently stably transfected with 8NBRE-luciferase. The N2A-8NBRE cells are cultured until confluence in 75 cm^2 culture flasks containing DMEM supplemented with 10% of foetal calf serum, 4.5 g/l of glucose and 0.4 mg/ml of geneticin. After a week of culture, the cells are recovered with 0.25% trypsin for 30 seconds and then resuspended in DMEM without phenol red, containing 4.5 g/l of glucose and 10% of Hyclone delipidized serum, and deposited into transparent-bottom 96-well white plates. The cells are deposited at a rate of 60 000 per well in 75 μl for 24 hours before the addition of the products. The products are applied in 25 μl and incubated for a further 24 hours. On the day of the measurement, an equivalent volume (100 μl) of Steadylite is added to each well and then left for a period of 30 minutes in order to obtain complete cell lysis and maximum signal production. The plates are subsequently measured in a luminescence counter for microplates after having been sealed with an adhesive film. The products are prepared in the form of a stock solution at 10^−2M and then diluted in 100% of DMSO. Each product concentration is prediluted in culture medium before incubation with the cells, thus containing 0.625% final concentration of DMSO.

T1 sequence (Q06219 whole entry): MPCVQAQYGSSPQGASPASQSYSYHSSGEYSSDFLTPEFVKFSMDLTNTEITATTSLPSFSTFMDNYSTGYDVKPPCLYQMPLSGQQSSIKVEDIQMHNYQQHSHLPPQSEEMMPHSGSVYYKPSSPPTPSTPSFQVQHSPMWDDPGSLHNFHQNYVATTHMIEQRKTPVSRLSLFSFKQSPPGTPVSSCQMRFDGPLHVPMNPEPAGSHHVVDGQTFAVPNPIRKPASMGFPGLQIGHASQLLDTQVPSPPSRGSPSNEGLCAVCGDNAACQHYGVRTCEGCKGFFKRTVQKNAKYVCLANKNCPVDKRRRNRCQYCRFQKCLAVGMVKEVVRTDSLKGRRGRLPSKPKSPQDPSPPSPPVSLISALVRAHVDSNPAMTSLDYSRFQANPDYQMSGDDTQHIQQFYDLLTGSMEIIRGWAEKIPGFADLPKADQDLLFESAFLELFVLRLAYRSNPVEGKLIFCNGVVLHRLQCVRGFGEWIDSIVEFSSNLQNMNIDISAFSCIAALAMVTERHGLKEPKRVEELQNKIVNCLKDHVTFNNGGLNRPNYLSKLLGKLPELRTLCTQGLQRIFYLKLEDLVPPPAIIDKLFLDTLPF

Row | SMILES | EC50 [nM]
1 | O=C(c1cn2cc(-c3cccc(CO)c3)ccc2n1)N1CC=CC1 [Compound 7, {3-[2-(2,5-Dihydro-1H-pyrrol-1-ylcarbonyl)imidazo[1,2-α]pyridin-6-yl]phenyl}methanol] | 5
2 | CN(C)c1ccc2nc(C(=O)N3CCc4ccc(F)cc43)cn2c1 [Compound 17, 2-[(6-Fluoro-2,3-dihydro-1H-indol-1-yl)carbonyl]-N,N-dimethylimidazo[1,2-α]pyridin-6-amine] | 6.7
3 | O=C(c1cn2cc(-c3ncco3)ccc2n1)N1CC=CCC1 [Compound 30, 6-(Oxazol-2-yl)-2-[(1,2,5,6-tetrahydropyridin-1-yl)carbonyl]imidazo[1,2-α]pyridine] | 56
4 | O=C(c1cn2cc(-c3nc[nH]n3)ccc2n1)N1CCc2ccccc21 [Compound 35, 2-(2,3-Dihydro-1H-indol-1-ylcarbonyl)-6-(1H-1,2,4-triazol-3-yl)imidazo[1,2-α]pyridine] | 11

Compounds with a lower EC50, results first:

Row | EC50 [nM] | SMILES
5 | 0.8 | O=C(c1cn2cc(-c3cccc(CO)c3)ccc2n1)N1CC=CCC1 [Compound 8, {3-[2-[(1,2,5,6-Tetrahydropyridin-1-yl)carbonyl]imidazo[1,2-α]pyridin-6-yl]phenyl}methanol]
6 | 2.4 | O=C(c1cn2cc(-c3c[nH]cn3)ccc2n1)N1CCc2ccccc21 [Compound 43, 2-(2,3-Dihydro-1H-indol-1-ylcarbonyl)-6-(1H-imidazol-4-yl)imidazo[1,2-α]pyridine]
